Results published in patent US9445594B2, “Molecules having certain pesticidal utilities, intermediates, compositions, and processes, related thereto” (priority 2014, dated 2016).

Assays:
Type in all cases: in vivo
[1] = system: Beet Armyworm (Spodoptera exigua, LAPHEG) ("BAW"); experiment: Bioassays on BAW, 128-well diet tray assay; conditions: 168 h, second instar larvae, 50 μg/cm^2 on artificial diet, 25° C., five to seven days, average of eight wells, read-out: BAW % Control (or Mortality) rating
Method: (§1) Certain molecules disclosed in this document were tested against BAW, CEW, and CL using procedures described in the following examples. In the reporting of the results, the “BAW, CEW, & CL Rating Table” was used (See Table Section).
Bioassays on BAW were conducted using a 128-well diet tray assay. one to five second instar BAW larvae were placed in each well (3 mL) of the diet tray that had been previously filled with 1 mL of artificial diet to which 50 μg/cm^2 of the test compound (dissolved in 50 μL of 90:10 acetone-water mixture) had been applied (to each of eight wells) and then allowed to dry. Trays were covered with a clear self-adhesive cover and held at 25° C., 14:10 light-dark for five to seven days. Percent mortality was recorded for the larvae in each well; activity in the eight wells was then averaged. The results are indicated in the table entitled “Table ABC: Biological Results” (See Table Section).

[2] = system: Cabbage Looper (Trichoplusia ni, TRIPNI) ("CL"); experiment: Bioassays on CL, 128-well diet tray assay; conditions: 168 h, second instar larvae, 50 μg/cm^2 on artificial diet, 25° C., five to seven days, average of eight wells, read-out: CL % Control (or Mortality) rating
Method: as §1
Bioassays on CL were conducted using a 128-well diet tray assay. one to five second instar CL larvae were placed in each well (3 mL) of the diet tray that had been previously filled with 1 mL of artificial diet to which 50 μg/cm^2 of the test compound (dissolved in 50 μL of 90:10 acetone-water mixture) had been applied (to each of eight wells) and then allowed to dry. Trays were covered with a clear self-adhesive cover and held at 25° C., 14:10 light-dark for five to seven days. Percent mortality was recorded for the larvae in each well; activity in the eight wells was then averaged. The results are indicated in the table entitled “Table ABC: Biological Results” (See Table Section).

[3] = system: Yellow Fever Mosquito (Aedes aegypti, AEDSAE) ("YFM"); experiment: Bioassays on YFM, 96-well plate larval assay; conditions: about 1 day-old larvae, from 4000 ppm DMSO master plate diluted, room temperature, scored after 3 days
Method: Certain molecules disclosed in this document were tested against YFM using procedures described in the following paragraph. In the reporting of the results, the “YFM Rating Table” was used (See Table Section).
Master plates containing 400 μg of a molecule dissolved in 100 μL of dimethyl sulfoxide (DMSO) (equivalent to a 4000 ppm solution) are used. A master plate of assembled molecules contains 15 μL per well. To this plate, 135 μL of a 90:10 water:acetone mixture is added to each well. A robot (Biomek® NXP Laboratory Automation Workstation) is programmed to dispense 15 μL aspirations from the master plate into an empty 96-well shallow plate (“daughter” plate). There are 6 reps (“daughter” plates) created per master. The created daughter plates are then immediately infested with YFM larvae.
The day before plates are to be treated, mosquito eggs are placed in Millipore water containing liver powder to begin hatching (4 g. into 400 mL). After the daughter plates are created using the robot, they are infested with 220 μL of the liver powder/larval mosquito mixture (about 1 day-old larvae). After plates are infested with mosquito larvae, a non-evaporative lid is used to cover the plate to reduce drying. Plates are held at room temperature for 3 days prior to grading. After 3 days, each well is observed and scored based on mortality.

FC(F)(F)Oc1ccc(-n2cnc(-c3ccc(NC(=S)Nc4ccccc4-c4ccccc4)cc3)n2)cc1 [F47, 1-([1,1′-Biphenyl]-2-yl)-3-(4-(1-(4-(trifluoromethoxy)phenyl)-1H-1,2,4-triazol-3-yl)phenyl)thiourea]
mortality at 50 µg/cm2 [1]: 0% | mortality at 50 µg/cm2 [2]: 50 to 100% | YFM % Control (or Mortality) rating [3]: D (No activity noticed in this bioassay)

O=C(NCCCCc1ccc(-c2ncn(-c3ccc(OC(F)(F)F)cc3)n2)cc1)Nc1ccc(Cl)cc1 [F94, 1-(4-Chlorophenyl)-3-(4-(4-(1-(4-(trifluoromethoxy)phenyl)-1H-1,2,4-triazol-3-yl)phenyl)butyl)urea]
mortality at 50 µg/cm2 [1]: 0% | mortality at 50 µg/cm2 [2]: 50 to 100% | YFM % Control (or Mortality) rating [3]: D (No activity noticed in this bioassay)

COc1ccc(NC(=O)NCCCCc2ccc(-c3ncn(-c4ccc(OC(F)(F)F)cc4)n3)cc2)cc1 [F97, 1-(4-Methoxyphenyl)-3-(4-(4-(1-(4-(trifluoromethoxy)phenyl)-1H-1,2,4-triazol-3-yl)phenyl)butyl)urea]
mortality at 50 µg/cm2 [1]: 0 to 50% | mortality at 50 µg/cm2 [2]: 0% | YFM % Control (or Mortality) rating [3]: D (No activity noticed in this bioassay)

Cc1ccccc1NC(=O)NCc1ccc(-c2ncn(-c3ccc(OC(F)(F)F)cc3)n2)cc1 [F100, 1-(o-Tolyl)-3-(4-(1-(4-(trifluoromethoxy)phenyl)-1H-1,2,4-triazol-3-yl)benzyl)urea]
mortality at 50 µg/cm2 [1]: 0% | mortality at 50 µg/cm2 [2]: 0% | YFM % Control (or Mortality) rating [3]: D (No activity noticed in this bioassay)

COc1ccc(NC(=O)NCCCc2ccc(-c3ncn(-c4ccc(OC(F)(F)F)cc4)n3)cc2)cc1 [F82, 1-(4-Methoxyphenyl)-3-(3-(4-(1-(4-(trifluoromethoxy)phenyl)-1H-1,2,4-triazol-3-yl)phenyl)propyl)urea]
mortality at 50 µg/cm2 [2]: 0% | YFM % Control (or Mortality) rating [3]: D (No activity noticed in this bioassay)

CC(C)c1ccccc1NC(=O)NCCCCc1ccc(-c2ncn(-c3ccc(OC(F)(F)F)cc3)n2)cc1 [F90, 1-(2-Isopropylphenyl)-3-(4-(4-(1-(4-(trifluoromethoxy)phenyl)-1H-1,2,4-triazol-3-yl)phenyl)butyl)urea]
mortality at 50 µg/cm2 [1]: 0% | mortality at 50 µg/cm2 [2]: 0% | YFM % Control (or Mortality) rating [3]: D (No activity noticed in this bioassay)

CCc1ccccc1NC(=O)NCCCCc1ccc(-c2ncn(-c3ccc(OC(F)(F)F)cc3)n2)cc1 [F98, 1-(2-Ethylphenyl)-3-(4-(4-(1-(4-(trifluoromethoxy)phenyl)-1H-1,2,4-triazol-3-yl)phenyl)butyl)urea]
mortality at 50 µg/cm2 [1]: 0 to 50% | mortality at 50 µg/cm2 [2]: 0% | YFM % Control (or Mortality) rating [3]: D (No activity noticed in this bioassay)

O=C(NCCCc1ccc(-c2ncn(-c3ccc(OC(F)(F)F)cc3)n2)cc1)Nc1ccc(Cl)cc1 [F79, 1-(4-Chlorophenyl)-3-(3-(4-(1-(4-(trifluoromethoxy)phenyl)-1H-1,2,4-triazol-3-yl)phenyl)propyl)urea]
mortality at 50 µg/cm2 [2]: 50 to 100% | YFM % Control (or Mortality) rating [3]: D (No activity noticed in this bioassay)

O=C(Nc1ccc(-c2ncn(-c3ccc(OC(F)(F)F)cc3)n2)cc1)Nc1ccccc1-n1cccc1 [F13, 1-(2-(1H-pyrrol-1-yl)phenyl)-3-(4-(1-(4-(trifluoromethoxy)phenyl)-1H-1,2,4-triazol-3-yl)phenyl)urea]
mortality at 50 µg/cm2 [1]: 50 to 100% | mortality at 50 µg/cm2 [2]: 50 to 100%

Cc1cccc(NC(=O)NCCCc2ccc(-c3ncn(-c4ccc(OC(F)(F)F)cc4)n3)cc2)c1 [F87, 1-(m-Tolyl)-3-(3-(4-(1-(4-(trifluoromethoxy)phenyl)-1H-1,2,4-triazol-3-yl)phenyl)propyl)urea]
mortality at 50 µg/cm2 [2]: 0% | YFM % Control (or Mortality) rating [3]: D (No activity noticed in this bioassay)

O=C(NCCCCc1ccc(-c2ncn(-c3ccc(OC(F)(F)F)cc3)n2)cc1)Nc1ccccc1Cl [F92, 1-(2-Chlorophenyl)-3-(4-(4-(1-(4-(trifluoromethoxy)phenyl)-1H-1,2,4-triazol-3-yl)phenyl)butyl)urea]
mortality at 50 µg/cm2 [2]: 0% | YFM % Control (or Mortality) rating [3]: D (No activity noticed in this bioassay)

Cc1cccc(NC(=O)NCCCCc2ccc(-c3ncn(-c4ccc(OC(F)(F)F)cc4)n3)cc2)c1 [F91, 1-(m-Tolyl)-3-(4-(4-(1-(4-(trifluoromethoxy)phenyl)-1H-1,2,4-triazol-3-yl)phenyl)butyl)urea]
mortality at 50 µg/cm2 [2]: 0% | YFM % Control (or Mortality) rating [3]: D (No activity noticed in this bioassay)

CCc1ccccc1N(C(=O)Nc1ccc(-c2ncn(-c3ccc(OC(F)(F)F)cc3)n2)cc1)C(N)=S [F52, N-(2-Ethylphenyl)-N-(4-{1-[4-(trifluoromethoxy)phenyl]-1H-1,2,4-triazol-3-yl}phenyl)dicarbonimidothioic diamide]
mortality at 50 µg/cm2 [1]: 50 to 100% | mortality at 50 µg/cm2 [2]: 50 to 100%

CCc1ccccc1NC(=O)NCc1ccc(-c2ncn(-c3ccc(OC(F)(F)F)cc3)n2)cc1 [F101, 1-(2-Ethylphenyl)-3-(4-(1-(4-(trifluoromethoxy)phenyl)-1H-1,2,4-triazol-3-yl)benzyl)urea]
mortality at 50 µg/cm2 [1]: 0% | YFM % Control (or Mortality) rating [3]: D (No activity noticed in this bioassay)

COc1cccc(NC(=O)NCCCCc2ccc(-c3ncn(-c4ccc(OC(F)(F)F)cc4)n3)cc2)c1 [F96, 1-(3-Methoxyphenyl)-3-(4-(4-(1-(4-(trifluoromethoxy)phenyl)-1H-1,2,4-triazol-3-yl)phenyl)butyl)urea]
mortality at 50 µg/cm2 [1]: 0% | YFM % Control (or Mortality) rating [3]: D (No activity noticed in this bioassay)

Cc1ccccc1-c1cccnc1NC(=O)Nc1ccc(-c2ncn(-c3ccc(OC(F)(F)F)cc3)n2)cc1 [F24, 1-(3-(o-Tolyl)pyridin-2-yl)-3-(4-(1-(4-(trifluoromethoxy)phenyl)-1H-1,2,4-triazol-3-yl)phenyl)urea]
mortality at 50 µg/cm2 [1]: 50 to 100% | mortality at 50 µg/cm2 [2]: 50 to 100%

Cc1ccccc1N(C(=O)Nc1ccc(-c2ncn(-c3ccc(OC(F)(F)F)cc3)n2)cc1)C(N)=S [F19, N-(2-methylphenyl)-N-(4-{1-[4-(trifluoromethoxy)phenyl]-1H-1,2,4-triazol-3-yl}phenyl)dicarbonimidothioic diamide]
mortality at 50 µg/cm2 [1]: 50 to 100% | mortality at 50 µg/cm2 [2]: 50 to 100%

Cc1ccccc1NC(=O)NCCCCc1ccc(-c2ncn(-c3ccc(OC(F)(F)F)cc3)n2)cc1 [F89, 1-(o-Tolyl)-3-(4-(4-(1-(4-(trifluoromethoxy)phenyl)-1H-1,2,4-triazol-3-yl)phenyl)butyl)urea]
mortality at 50 µg/cm2 [1]: 0% | YFM % Control (or Mortality) rating [3]: D (No activity noticed in this bioassay)

O=C(Nc1ccc(-c2ncn(-c3ccc(OC(F)(F)F)cc3)n2)cc1)Nc1ncccc1-c1ccccc1 [F32, 1-(3-Phenylpyridin-2-yl)-3-(4-(1-(4-(trifluoromethoxy)phenyl)-1H-1,2,4-triazol-3-yl)phenyl)urea]
YFM % Control (or Mortality) rating [3]: B (More than 0 - Less than 80)

Cc1ccc(NC(=O)NCCCc2ccc(-c3ncn(-c4ccc(OC(F)(F)F)cc4)n3)cc2)cc1 [F83, 1-(p-Tolyl)-3-(3-(4-(1-(4-(trifluoromethoxy)phenyl)-1H-1,2,4-triazol-3-yl)phenyl)propyl)urea]
mortality at 50 µg/cm2 [2]: 0% | YFM % Control (or Mortality) rating [3]: D (No activity noticed in this bioassay)

O=C(NCc1ccc(-c2ncn(-c3ccc(OC(F)(F)F)cc3)n2)cc1)Nc1ccccc1-c1ccccc1 [F70, 1-([1,1′-biphenyl]-2-yl)-3-(4-(1-(4-(trifluoromethoxy)phenyl)-1H-1,2,4-triazol-3-yl)benzyl)urea]
mortality at 50 µg/cm2 [1]: 50 to 100% | mortality at 50 µg/cm2 [2]: 50 to 100%
